In publication PMC7426938, “Induction of mitochondria-mediated apoptosis and suppression of tumor growth in zebrafish xenograft model by cyclic dipeptides identified from Exiguobacterium acetylicum” (Scientific Reports, 2020):

Legend:
[1] = tested on: Colorectal cancer HT-29 cells; assay: MTT cell viability assay, HT-29; type: cell-based; conditions: Homo sapiens; for viability at 125 µM: 24 h treatment, read-out: relative percentage viability of HT-29 cells; for IC50: 24 h, MTT, read-out: HT-29 cells inhibitory (IC50) dose
Procedure: Human colorectal cancer (HT-29) and mouse embryonic fibroblast (3T3) cells were obtained from the American Type Culture Collection Centre (ATCC, VA, USA). Both cells were grown in Dulbecco Modified Eagle's Medium (DMEM, HiMedia, India) supplemented with 10% heat-inactivated fetal bovine serum (FBS), penicillin (50 units/mL), and streptomycin (50 µg/mL) and were cultured at 37 °C, 5% CO2 in a humidified atmosphere.
Cytotoxicity of the identified those DKPs were determined by cell viability study with the MTT (3-(4, 5-dimethylthiazol-2yl)-2, 5-diphenyltetrazolium bromide) reduction assay[49]. Briefly, 1.5 × 10^4 cells/well (HT-29) and 1.7 × 10^4 cells/well (3T3) cells were seeded into 96-well plates. They were incubated for 24 h at 37 °C with 5% CO2 and 95% relative humidity atmosphere. After 24 h, identified DKPs were added different concentrations (12.5 to 200 µM) into culture media in triplicates and re-incubated under the same culture conditions mentioned above. The final concentration of DMSO solution was 0.25% in the cells served as a negative control. Then culture media was removed from the plates, and 100 μL of freshly prepared MTT solution in serum-free medium (5 mg/mL) was added to each well and further incubated for 4 h. After that, 150 μL of DMSO solution was added under dark conditions and kept for 30 min at room temperature. The absorbance of the formazan product was measured at 595 nm in the microplate reader (Imark, Biorad). The percentage viability of the cells was measured by using the formula: Cell viability (%) = [(test/control) × 100)].
Results were expressed as mean ± standard deviation (SD). Data were analyzed one-way analysis of variance (ANOVA), followed by Student’s two-tailed t-test for comparison between two groups and Dunnett’s t-test was used when the data involved three or more groups. A value of p < 0.05 was considered statistically significant. All statistical analyses and inhibitory concentration (IC50) were determined by graph-pad prism statistical software (San Diego, CA, USA).

HT-29 cells = assay: Annexin V-FITC/PI double staining, flow cytometry; type: cell-based, human; conditions: 24 h; for LA/NC Q2 late apoptotic or/and necrotic cells, fold change / Q1 + Q2 total dead cells, fold change / Q1 dead cells, fold change / Q2 + Q3 total apoptotic cells, fold change / EAC Q3 early apoptotic cells, fold change: vs CTL; for viability at 50 µM / viability at 100 µM / viability at 200 µM: Homo sapiens, HT-29, quadrant plot, read-out: Percentage of viable (Q4) cells
Procedure: The dead, necrotic, and apoptotic cells were analyzed by annexin V/PI double staining method, which was used to detect the externalization of phosphatidylserine (PS). Briefly, cells at the density of 4.5 × 10^4 cells/well were seeded into 6-well plates and treated with or without DKPs for 24 h. Subsequently, both floating and adherent cells were harvested by centrifugation at 1,500 rpm for 5 min, then re-suspended in 300 μL of 1X binding buffer, followed by 3 μL of annexin V-FITC and propidium iodide (PI) (Apoptosis Detection kit, Lead Gen, Taiwan) was added into each sample and incubated for 20 min at room temperature in the dark following the protocol recommended by the manufactures. Cells were analyzed by flow cytometry (FACS Calibur, Becton Dickinson, CA, USA) using WinMDI 2.9 software (La Jolla, CA, USA). The individual populations can be defined using quadrant gates, the number of cells in each quadrant indicated the following: Quadrant-1 (Q1): annexin V^-/PI^+ cells were considered as dead cells; Quadrant-2 (Q2): Annexin V^+/PI^+ cells were considered as late apoptotic and necrotic cells; Quadrant-3 (Q3): Annexin V^+/PI^− cells were considered as early apoptotic cells; Quadrant-4 (Q4): Annexin V^-/PI^- cells were considered as healthy. Data were analyzed using FlowJo V12.1 software (Tree stat, Stanford, CA, USA).

[2] = tested on: Casp-3 (Caspase-3) mRNA in HT-29 cells; assay: sqRT-PCR gene expression, Casp-3; type: cell-based, human; conditions: 200 μM, 24 h, vs untreated cells
Procedure: Total RNA was isolated from HT-29 cells using the TRIzol reagent (TaKara, Japan) following the manufacturer’s instruction. The quantity and quality of each RNA sample were analyzed with a NanoDrop-1000 (Thermo Fisher Scientific, USA), followed by conversion to cDNA using RevertAid cDNA synthesis kit (Thermo Fisher Scientific, CA, USA) using 1 μg of mRNA to synthesize cDNA. Semi-quantitative reverse transcriptase-polymerase chain (sqRT-PCR) reaction was carried out in a Veriti Thermal Cycler (Applied Biosystems, CA, USA) using 2X Taq DNA polymerase Master Mix RED (Ampliqon, Denmark, Germany) as we previously described method. All sqRT-PCRs were run for at least three times. GAPDH served as a housekeeping gene to normalize the expression levels. The expression levels were analyzed by measuring the intensity of the band from the gel using Image-J software.

[3] = tested on: Bid protein in HT-29 cells; assay: Western blot, Bid protein; type: cell-based, human; conditions: for Bid protein expression up-regulation: 200 μM, 24 h, vs untreated group
Procedure: Total protein was isolated from HT-29 cells by using lysis buffer. Cells were collected by centrifugation at 1,500 rpm for 5 min. After that, cell pellets were re-suspended with RIPA lysis buffer consisting of 1 mM protease inhibitor cocktail (PIC; Sigma-Aldrich; P8340) and lysed at […] for 1 h. After incubation, the protein was obtained by centrifugation at 13,000 × g for 15 min and kept for − 80 °C until analysis. Also, mitochondrial and cytosolic fractions were obtained by using fraction lysis buffer as described previously[50] with minor modifications. Lysed cells were kept in ice for 10 min and then cells were triturated by a 27 gauge syringe (25 strokes) to become homogeneous followed by centrifugation at 13,000 × g for 30 min. The collected supernatant was the cytosolic fraction. After the pellet was washed with lysis buffer and it was dissolved in lysis buffer for protein quantification. Protein concentration was measured by Pierce BCA protein assay kit (Thermo Scientific Laboratories, Rockford, USA) according to the manufacturer instructions. Equal amounts of proteins from all samples were separated by 10% SDS–polyacrylamide gel electrophoresis (SDS-PAGE) and electrotransferred. Polyvinylidene difluoride (PVDF) membrane was blocked with 5% skimmed milk for 1 h, followed by incubation with primary (Cytochrome-c: sc-13560; Bid: sc-11423; COX-IV: #4850; 1:2000; GAPDH: #3683; 1:10,000) and HRP-conjugated secondary (Got Anti-mouse IgG: 20102; Got anti-rabbit IgG: 20202: 1:10,000) antibodies against specific proteins. The protein signals were detected by Enhanced Chemiluminescence (ECL) detection kit (Amersham Piscataway, NJ, USA). The protein expression levels were analyzed by measuring the intensity of the band from scanned films using Image-J software. GAPDH and COX-IV served as a housekeeping protein to normalize the expression levels.

SMILES	viability at 125 µM [1]	IC50 [1]	LA/NC Q2 late apoptotic or/and necrotic cells, fold change (HT-29 cells; 50 μM)	Q1 + Q2 total dead cells, fold change (HT-29 cells; 50 μM)	Q1 dead cells, fold change (HT-29 cells; 50 μM)	Q2 + Q3 total apoptotic cells, fold change (HT-29 cells; 50 μM)	LA/NC Q2 late apoptotic or/and necrotic cells, fold change (HT-29 cells; 100 μM)	Q1 + Q2 total dead cells, fold change (HT-29 cells; 100 μM)	Q1 dead cells, fold change (HT-29 cells; 100 μM)	Q2 + Q3 total apoptotic cells, fold change (HT-29 cells; 100 μM)	LA/NC Q2 late apoptotic or/and necrotic cells, fold change (HT-29 cells; 200 μM)	Q1 + Q2 total dead cells, fold change (HT-29 cells; 200 μM)	Q1 dead cells, fold change (HT-29 cells; 200 μM)	Q2 + Q3 total apoptotic cells, fold change (HT-29 cells; 200 μM)	viability at 50 µM (HT-29 cells; 50 μM)	viability at 100 µM (HT-29 cells; 100 μM)	viability at 200 µM (HT-29 cells; 200 μM)	Casp-3 gene expression up-regulation [2]	Bid protein expression up-regulation [3]	EAC Q3 early apoptotic cells, fold change (HT-29 cells; 50 μM)	other results
CC(C)C[C@@H]1NC(=O)[C@@H]2CCCN2C1=O [DKP-1, cyclo (L-Pro-L-Leu)]	36.3 ± 5.08%	100 µM	2.3 fold	1.7 fold	1.5 fold	2.3 fold	2.6 fold	3.0 fold	3.1 fold	3.6 fold	9.9 fold	3.3 fold	1.1 fold	11.4 fold	83.3%	69.7%	56.3%	2.32 fold	1.32 fold	–	–
CC(C)[C@@H]1NC(=O)[C@@H]2CCCN2C1=O [DKP-2, cyclo (L-Pro-L-Val)]	42.3 ± 2.25%	118 µM	2.5 fold	1.7 fold	1.5 fold	2.7 fold	3.5 fold	3.1 fold	3.0 fold	3.9 fold	11.2 fold	3.5 fold	1.2 fold	11.0 fold	79.3%	64.2%	52.5%	1.31 fold	1.21 fold	3.0 fold	EAC Q3 early apoptotic cells, fold change (HT-29 cells; 100 μM): 4.5 fold; EAC Q3 early apoptotic cells, fold change (HT-29 cells; 200 μM): 10.6 fold
O=C1N[C@@H](Cc2ccccc2)C(=O)N2CCC[C@@H]12 [DKP-3, cyclo (L-Pro-L-Phe)]	34.7 ± 4.03%	85.2 µM	10.5 fold	3.3 fold	1.7 fold	12.7 fold	14.9 fold	3.8 fold	1.4 fold	15.9 fold	15.6 fold	3.8 fold	1.3 fold	18.1 fold	55.8%	50%	45.4%	1.76 fold	1.76 fold	16.5 fold	EAC Q3 early apoptotic cells, fold change (HT-29 cells; 100 μM): 17.4 fold; EAC Q3 early apoptotic cells, fold change (HT-29 cells; 200 μM): 22.3 fold
O=C1N[C@@H](Cc2ccc(O)cc2)C(=O)N2CCC[C@@H]12 [DKP-4, cyclo (L-Pro-L-Tyr)]	42.1 ± 2.94%	98 µM	8.4 fold	3.0 fold	1.5 fold	12.6 fold	14.6 fold	3.9 fold	1.0 fold	15.9 fold	18.0 fold	5.5 fold	2.1 fold	15.5 fold	57.6%	52%	46.5%	2.73 fold	–	20.5 fold	EAC Q3 early apoptotic cells, fold change (HT-29 cells; 100 μM): 18.4 fold; EAC Q3 early apoptotic cells, fold change (HT-29 cells; 200 μM): 10.8 fold; Bid protein expression level ([3]; 100 μM, vs control and 200 μM): increased the expression level of Bid
